Assay results taken from ChEMBL document CHEMBL1122453, “Structure-activity relationships in the antiinflammatory steroids: a pattern-recognition approach” (1983).
Activity calls are given as the source filed them. The rule behind the calls is not given here.

Key:
Homo sapiens [1] = species on record: Homo sapiens; assay: Potency relative to fluocinolone 16,17-acetonide(Experimental vasoconstictor activity) in human; assay type: functional
Rattus norvegicus [2] = species on record: Rattus norvegicus; assay: Anti-inflammatory effect in rat granuloma assay, activity relative to hydrocortisone and hydrocortisone 21-acetate; assay type: functional
Homo sapiens [3] = species on record: Homo sapiens; assay: Potency relative to fluocinolone 16,17-acetonide(Experimental vasoconstictor activity) in human; 900-1080; assay type: functional
Homo sapiens [4] = species on record: Homo sapiens
Homo sapiens [5] = species on record: Homo sapiens; assay: Potency relative to fluocinolone 16,17-acetonide(Experimental vasoconstictor activity) in human; 15-45; assay type: functional
Homo sapiens [6] = species on record: Homo sapiens; assay: Potency relative to fluocinolone 16,17-acetonide in the human vasoconstictor test; assay type: functional
Homo sapiens [7] = species on record: Homo sapiens; assay: Potency relative to fluocinolone 16,17-acetonide(Experimental vasoconstictor activity) in human; 100-300; assay type: functional
Rattus norvegicus [8] = species on record: Rattus norvegicus; assay: Experimental relative rat granuloma activity (relative to hydrocortisone and hydrocortisone 21-acetate); 0.15-0.5; assay type: functional
Homo sapiens [9] = species on record: Homo sapiens; assay: Potency relative to fluocinolone 16,17-acetonide(Experimental vasoconstictor activity)in human; NA= Not active; assay type: functional, organism-based
Rattus norvegicus [10] = species on record: Rattus norvegicus; assay: Experimental relative rat granuloma activity (relative to hydrocortisone and hydrocortisone 21-acetate); 200-500; assay type: functional
Homo sapiens [11] = species on record: Homo sapiens; assay: PPotency relative to fluocinolone 16,17-acetonide(Experimental vasoconstictor activity) in human; NA= Not active; assay type: functional, organism-based
Homo sapiens [12] = species on record: Homo sapiens; assay: Potency relative to fluocinolone 16,17-acetonide(Experimental vasoconstictor activity) in human;NA =Not active; assay type: functional, organism-based
Homo sapiens [13] = species on record: Homo sapiens; assay: Potency relative to fluocinolone 16,17-acetonide(Experimental vasoconstictor activity) in human; 16-34; assay type: functional
Homo sapiens [14] = species on record: Homo sapiens; assay: Potency relative to fluocinolone 16,17-acetonide(Experimental vasoconstictor activity) in human;NA = Not active; assay type: functional, organism-based

CC1(C)O[C@@H]2C[C@H]3[C@@H]4C[C@H](F)C5=CC(=O)C=C[C@]5(C)[C@@]4(F)[C@@H](O)C[C@]3(C)[C@]2(C(=O)CO)O1 [FLUOCINOLONE ACETONIDE]
Potency (Homo sapiens [1]): 100
Potency (Rattus norvegicus [2]): 450

CCCC(=O)O[C@]1(C(C)=O)CCC2C3C[C@H](F)C4=CC(=O)C=CC4(C)[C@@]3(F)C(O)CC21C (stereo not given in full)
Potency (Homo sapiens [3]): 900

CC(=O)O[C@]1(C(=O)CO)CCC2C3CCC4=CC(=O)CCC4(C)C3C(O)CC21C (stereo not given in full)
Potency (Homo sapiens [4]): inactive

C[C@]12C=CC(=O)C=C1[C@@H](F)C[C@H]1[C@@H]3C[C@@H](O)[C@](O)(C(=O)CO)[C@@]3(C)C[C@H](O)[C@@]12F [FLUOCINOLONE]
Potency (Homo sapiens [5]): 15
Potency (Rattus norvegicus [2]): 19.7

C[C@@H]1C[C@H]2[C@@H]3C[C@H](F)C4=CC(=O)C=C[C@]4(C)[C@H]3[C@@H](O)C[C@]2(C)[C@@]1(O)C(=O)CO [PARAMETHASONE]
Potency (Homo sapiens [4]): inactive
Potency (Rattus norvegicus [2]): 63.6

CC1(C)O[C@@H]2C[C@H]3[C@@H]4C[C@H](F)C5=CC(=O)CC[C@]5(C)[C@H]4[C@@H](O)C[C@]3(C)[C@]2(C(=O)CO)O1 [FLURANDRENOLIDE]
Potency (Homo sapiens [6]): 12
Potency (Homo sapiens [7]): 100

C[C@H]1CC2C3CCC4=CC(=O)C=CC4(C)[C@@]3(F)[C@@H](O)CC2(C)[C@@]1(O)C(=O)CCl (stereo not given in full)
Potency (Homo sapiens [4]): inactive

C[C@@H]1CC2C3C[C@H](Cl)C4=CC(=O)C=CC4(C)C3C(O)CC2(C)C1C(=O)COC(=O)C(C)(C)C (stereo not given in full)
Potency (Homo sapiens [4]): inactive

CC12CCC(=O)C=C1CCC1C2[C@@H](O)CC2(C)C1CC[C@]2(O)C(=O)OCCl (stereo not given in full)
Potency (Homo sapiens [4]): inactive

CC1(C)O[C@@H]2C[C@H]3[C@@H]4CCC5=CC(=O)CC[C@]5(C)[C@@]4(F)[C@@H](O)C[C@]3(C)[C@]2(C(=O)CCl)O1 [HALCINONIDE]
Potency (Homo sapiens [6]): >360
Potency (Homo sapiens [4]): inactive

CC(=O)OCC(=O)[C@@]1(O)CCC2C3CCC4=CC(=O)C=CC4(C)C3[C@@H](Cl)CC21C (stereo not given in full)
Potency (Rattus norvegicus [8]): 0.15

C[C@@H]1C[C@H]2[C@@H]3C[C@H](F)C4=CC(=O)C=C[C@]4(C)[C@H]3[C@@H](O)C[C@]2(C)[C@H]1C(=O)CO [FLUOCORTOLONE]
Potency (Homo sapiens [9]): inactive
Potency (Rattus norvegicus [2]): 350

CCC(=O)[C@@]1(C)[C@H](C)CC2C3CCC4=CC(=O)C=C[C@]4(C)C3[C@@H](O)C[C@@]21C (stereo not given in full)
Potency (Homo sapiens [4]): inactive

CC1CC2C3CCC4=CC(=O)C=CC4(C)[C@@]3(F)C(O)CC2(C)[C@@]1(O)C(=O)COP(=O)(O)O (stereo not given in full)
Potency (Homo sapiens [4]): inactive

C[C@@H]1C[C@H]2[C@@H]3C[C@H](F)C4=CC(=O)C=C[C@]4(C)[C@@]3(F)[C@@H](O)C[C@]2(C)[C@@]1(O)C(=O)CO [FLUMETHASONE]
Potency (Rattus norvegicus [10]): 200

CCC(=O)O[C@]1(C(=O)C(=O)OCCl)CC[C@H]2C3CCC4=CC(=O)CCC4(C)C3[C@@H](O)CC21C (stereo not given in full)
Potency (Homo sapiens [4]): inactive

CC1(C)O[C@@H]2CC3C4CCC5=CC(=O)C=CC5(C)C4[C@@H](O)CC3(C)[C@]2(C(=O)CCl)O1 (stereo not given in full)
Potency (Homo sapiens [11]): inactive

CC1(C)O[C@@H]2C[C@H]3[C@@H]4CCC5=CC(=O)C=C[C@]5(C)[C@H]4[C@@H](O)C[C@]3(C)[C@]2(C(=O)CO)O1 [DESONIDE]
Potency (Homo sapiens [12]): inactive
Potency (Rattus norvegicus [2]): 66.2

CCCC(=O)OCC(=O)[C@@]1(OC(C)=O)CCC2C3C[C@H](F)C4=CC(=O)C=CC4(C)[C@@]3(F)C(O)CC21C (stereo not given in full)
Potency (Homo sapiens [4]): inactive

CCC(=O)O[C@]1(C(=O)OCCl)CCC2C3CCC4=CC(=O)CCC4(C)C3[C@@H](O)CC21C (stereo not given in full)
Potency (Homo sapiens [4]): inactive

CCCCC(=O)O[C@]1(C(=O)CO)CCC2C3CCC4=CC(=O)CCC4(C)C3C(O)CC21C (stereo not given in full)
Potency (Homo sapiens [13]): 16

CC(=O)OCC(=O)[C@]1(O)C2(C)C[C@H](O)C3C(CCC4=CC(=O)C=CC43C)C2C[C@@]1(C)O (stereo not given in full)
Potency (Homo sapiens [4]): inactive

CC1(C)O[C@@H]2CC3C4CCC5=CC(=O)CCC5(C)C4[C@@H](O)CC3(C)[C@]2(C(=O)CCl)O1 (stereo not given in full)
Potency (Homo sapiens [4]): inactive

C[C@@H]1CC2C3CCC4=CC(=O)C=CC4(C)[C@@]3(F)C(O)CC2(C)C1C(=O)CO (stereo not given in full) [DEOXYMETHASONE]
Potency (Homo sapiens [4]): inactive
Potency (Rattus norvegicus [2]): 10

CC(=O)OCC(=O)[C@@]1(O)CCC2C3CCC4=CC(=O)CCC4(C)[C@@]3(Cl)[C@@H](Cl)CC21C (stereo not given in full)
Potency (Rattus norvegicus [8]): 0.15

CCC(=O)OCC(=O)C1(C)C(C)CC2C3CCC4=CC(=O)C=CC4(C)[C@@]3(F)CCC21C (stereo not given in full)
Potency (Homo sapiens [4]): inactive

CC1(C)O[C@@H]2CC3C4C[C@H](F)C5=CC(=O)C=CC5(C)[C@@]4(F)[C@@H](O)CC3(C)[C@]2(C(=O)C(=O)OCCl)O1 (stereo not given in full)
Potency (Homo sapiens [4]): inactive

C[C@@H]1CC2C3C[C@H](F)C4=CC(=O)C=CC4(C)[C@@]3(F)C(O)CC2(C)C1C(=O)COC(=O)C(C)(C)C (stereo not given in full)
Potency (Homo sapiens [4]): inactive

CCCCC(=O)O[C@]1(C(=O)COC(C)=O)CCC2C3CCC4=CC(=O)C=CC4(C)C3C(O)CC21C (stereo not given in full)
Potency (Homo sapiens [4]): inactive

C[C@@H]1CC2C3CCC4=CC(=O)C=CC4(C)[C@@]3(F)[C@@H](O)CC2(C)[C@@]1(C)C(=O)CO (stereo not given in full)
Potency (Homo sapiens [4]): inactive

C[C@]12C=CC(=O)C=C1CC[C@H]1[C@@H]3C[C@@H](O)[C@](O)(C(=O)CO)[C@@]3(C)C[C@H](O)[C@@]12F [TRIAMCINOLONE]
Potency (Homo sapiens [6]): 0.01
Potency (Rattus norvegicus [2]): 2.6

CCCCC(=O)OCC(=O)[C@H]1[C@H](C)C[C@H]2[C@@H]3C[C@H](F)C4=CC(=O)C=C[C@]4(C)[C@@]3(F)[C@@H](O)C[C@@]21C
Potency (Homo sapiens [9]): inactive

CC(=O)OCC(=O)[C@@]1(O)[C@H](C)CC2C3C[C@H](F)C4=CC(=O)C=CC4(C)C3C(O)CC21C (stereo not given in full)
Potency (Homo sapiens [14]): inactive
Potency (Rattus norvegicus [2]): 60

C[C@H]1C[C@@H]2[C@H]([C@@H](O)C[C@@]3(C)[C@H]2CC[C@]3(O)C(=O)CO)[C@@]2(C)C=CC(=O)C=C12 (stereo in doubt) [METHYLPREDNISOLONE]
Potency (Homo sapiens [6]): 0.1
Potency (Rattus norvegicus [2]): 5
